According to ChEMBL document CHEMBL1138771, “Novel arylsulfoanilide-oxindole hybrid as an anticancer agent that inhibits translation initiation” (J Med Chem, 2004):

Key:
A549 = assay: Concentration required for growth inhibition of human lung cancer cells (A549); assay type: functional
NIH 3T3 (Mus musculus) = assay: Ratio of the peak heights normalized to the peak of clotrimazole as a reference was a measure of intracellular [Ca2+] stores depletion in NIH 3T3 cell
DU-145 = assay: Concentration required for growth inhibition of human prostate cancer cells (DU145) was determined; assay type: functional, cell-based

SMILES | GI50 (A549) | IC50 (DU-145) | Ratio (NIH 3T3 (Mus musculus))
Cc1ccc(NS(=O)(=O)c2ccc(Br)cc2)cc1O | 20 µM |  | 0.27
Cc1ccc(NS(=O)(=O)c2ccc(Oc3ccccc3)cc2)cc1O | 7 µM |  | 1.1
Cc1cc(C2(c3ccccc3)C(=O)Nc3ccccc32)c(NS(=O)(=O)c2ccc(Oc3ccccc3)cc2)cc1O (stereo unspecified) | 5 µM |  | 0
Cc1ccc(NS(=O)(=O)c2ccc(C(C)(C)C)cc2)cc1 | 11 µM |  | 1.11
Cc1ccccc1NS(=O)(=O)c1ccc(C(C)(C)C)cc1 | > 80 µM |  | 0.49
Cc1ccc(NS(=O)(=O)c2ccc([N+](=O)[O-])cc2)cc1O | 29 µM |  | 0.14
O=[N+]([O-])c1ccc(S(=O)(=O)Nc2ccccc2)cc1 | 52 µM |  | 0.13
O=S(=O)(Nc1ccccc1)c1ccccc1 [PHENYL(PHENYLSULFONYL)AMINE] | > 80 µM |  | 0
O=S(=O)(Nc1ccccc1)c1ccc(I)cc1 | 23 µM |  | 0.87
Cc1cc(C2(c3ccccc3)C(=O)Nc3ccccc32)c(NS(=O)(=O)c2ccc(C(C)(C)C)cc2)cc1O (stereo unspecified) | 0.8 µM | 1.08 µM | 1.06
CC(C)(C)c1ccc(S(=O)(=O)Nc2ccccc2)cc1 | 16 µM |  | 1.44
CN(c1ccccc1)S(=O)(=O)c1ccc(C(C)(C)C)cc1 | 30 µM |  | 0.14
O=C1Nc2ccccc2C1(c1ccccc1)c1ccccc1 | 13 µM | 12.5 µM | 0.87
O=S(=O)(Nc1ccccc1)c1ccc(Br)cc1 | 30 µM |  | 0.38
Cc1ccc(NS(=O)(=O)c2ccc(C(C)(C)C)cc2)c(O)c1 | 8 µM |  | 1.44
COc1ccc(S(=O)(=O)Nc2ccccc2)cc1 | 16 µM |  | 0.63
Cc1ccc(NS(=O)(=O)c2ccc(I)cc2)cc1O | 15 µM |  | 0.45

The next lines start with results.

GI50 (A549) | IC50 (DU-145) | SMILES | Ratio (NIH 3T3 (Mus musculus))
17 µM |  | O=S(=O)(Nc1ccccc1)c1ccc(-c2ccccc2)cc1 | 1.37
12 µM |  | CC(C)(C)c1ccc(S(=O)(=O)Nc2cccc(O)c2)cc1 | 0.55
51 µM |  | COc1ccc(S(=O)(=O)Nc2ccc(C)c(O)c2)cc1 | 0.12
9 µM |  | Cc1ccc(NS(=O)(=O)c2ccc(-c3ccccc3)cc2)cc1O | 0.72
> 20 µM |  | Cc1cc(O)c(NS(=O)(=O)c2ccc(C(C)(C)C)cc2)cc1C1(c2ccccc2)C(=O)Nc2ccccc21 (stereo unspecified) | 0.44
6 µM |  | Cc1ccc(NS(=O)(=O)c2ccc(C(C)(C)C)cc2)cc1O | 1.12
13 µM |  | CC(C)(C)c1ccc(S(=O)(=O)Nc2ccccc2O)cc1 | 1.17
14 µM |  | CC(C)(C)c1ccc(S(=O)(=O)Nc2ccc(O)cc2)cc1 | 0.33
48 µM |  | CC(=O)Nc1ccc(S(=O)(=O)Nc2ccc(C)c(O)c2)cc1 | 0.19
4 µM |  | Cc1cc(C2(c3ccccc3)C(=O)Nc3ccccc32)c(NS(=O)(=O)c2ccc(-c3ccccc3)cc2)cc1O (stereo unspecified) | 0
3 µM | 2.49 µM | CC(C)(C)c1ccc(O)c(C2(c3ccccc3)C(=O)Nc3ccccc32)c1 (stereo unspecified) | 1.1
80 µM |  | Cc1cccc(NS(=O)(=O)c2ccc(C(C)(C)C)cc2)c1 | 0.95
